In PubChem BioAssay AID1996:
Converted amounts (≈) assume the structure as drawn.

Conditions: buffer; pH 7.4; 200.0 µM

`O=C(OCC(=O)c1ccc(Cl)cc1Cl)c1ccccn1` and `Cc1cccnc1NC(=O)CCNC(=O)c1ccc(Cl)cc1` cannot be ordered by solubility kinetic: over 46.5 µg/mL for the first, over 47.7 µg/mL for the second.

Compared with `COc1ccc(C(=O)N[C@H](C(=O)NC2CCCCC2)C(C)C)cc1`, `COc1ccc(C(=O)NCC(=O)OCC(=O)NC2CCCCCC2)cc1` is higher in solubility kinetic: 5.1 µg/mL (≈ 15.3 µM) for the first, over 54.4 µg/mL for the second.

`O=C(Nc1ccccc1C(F)(F)F)N1CCN(c2ccccn2)CC1` and `CN1CCN(c2ccc(Cl)cc2NC(=O)/C=C/c2cccc(F)c2)CC1` are within 1.5-fold of each other in solubility kinetic: 49.9 µg/mL (≈ 142 µM) for the first, 34.4 µg/mL (≈ 92 µM) for the second.

Going from `O=C(Nc1ccc(Br)cc1Cl)c1ccc(OCC2CCCO2)cc1` (stereo not given) to `Cc1cc(C(=O)NC2CCCN(Cc3ccc(Cl)cc3)C2)no1` (stereo not given), the solubility kinetic rises from 2.8 µg/mL (≈ 6.82 µM) to 39.7 µg/mL (≈ 119 µM) (14-fold).

`O=C1CS/C(=N/N=C/c2ccncc2)N1` and `O=C1NC(=O)C(c2ccc(F)cc2)N1` (stereo not given) cannot be ordered by solubility kinetic: over 33 µg/mL for the first, over 29.1 µg/mL for the second.

`Cn1c(N)c(C(=O)COC(=O)COc2cc(Cl)c(Cl)cc2Cl)c(=O)n(C)c1=O` and `COc1cc(/C=C/C(=O)OCC(=O)Nc2cc(S(=O)(=O)N3CCCC3)ccc2Cl)cc(OC)c1OC` are within 1.5-fold of each other in solubility kinetic: 4 µg/mL (≈ 8.88 µM) for the first, 4.3 µg/mL (≈ 7.98 µM) for the second.

Going from `COc1cccc(/C=C/C(=O)OCC(=O)NCCC2=CCCCC2)c1OC` to `CC(=O)Nc1ccccc1OCC(=O)NC1CCCCC1C` (stereo not given), the solubility kinetic rises from 6.9 µg/mL (≈ 18.5 µM) to over 45.7 µg/mL.

Compared with `CN1CCN(C(=O)C2CCN(S(=O)(=O)c3ccc(F)cc3)CC2)CC1`, `Cc1ccc(CC(=O)Nc2ccc(S(=O)(=O)N3CCOCC3)cc2)cc1` is 5.1-fold lower in solubility kinetic: 38.5 µg/mL (≈ 104 µM) for the first, 7.5 µg/mL (≈ 20 µM) for the second.

Compared with `CCC(C)c1ccc(NC(=O)c2ccco2)cc1` (stereo not given), `O=C(CNC(=O)c1ccco1)Nc1ccc(OC(F)F)cc1` is higher in solubility kinetic: 24.6 µg/mL (≈ 101 µM) for the first, over 46.5 µg/mL for the second.

Compared with `N#CCCC1CCCC=C1N(Cc1ccccc1)C(=O)C(Cl)Cl` (stereo not given), `O=C(c1ccccc1)c1cnc[nH]1` is lower in solubility kinetic: over 52.7 µg/mL for the first, 25.6 µg/mL (≈ 149 µM) for the second.

`COc1ccccc1N1CC=C(c2cccc([N+](=O)[O-])c2)NC1=O` and `COc1cccc(CNC(=O)c2cc(C)nc3ccccc23)c1` are within 1.5-fold of each other in solubility kinetic: 39.8 µg/mL (≈ 122 µM) for the first, 41.1 µg/mL (≈ 134 µM) for the second.

`Cn1ccnc1SCc1cccc([N+](=O)[O-])c1` and `COc1ccc(CNC(=O)COc2cccnc2[N+](=O)[O-])cc1` cannot be ordered by solubility kinetic: over 37.4 µg/mL for the first, over 47.6 µg/mL for the second.

First: OCC1CCCCN1C(=S)Nc1cccc(Cl)c1 (stereo not given)
Second: Cc1cccc(NC(=O)N2C3CCCC2CC(NC(=O)C2CC2)C3)c1 (stereo not given)
The solubility kinetic of the first is higher: over 42.7 µg/mL for the first, 22.7 µg/mL (≈ 66.5 µM) for the second.

Compared with `NC(=O)c1ccc(CSc2nc3ccccc3s2)cc1`, `Cc1cc(C(=O)NCc2ccc(F)cc2)c2ccccc2n1` is 11-fold higher in solubility kinetic: 1.4 µg/mL (≈ 4.66 µM) for the first, 15.8 µg/mL (≈ 53.7 µM) for the second.

Going from `CCC1(C)CC(C(N)=S)CCO1` (stereo not given) to `O=C(NCc1cccs1)C1CC1`, the solubility kinetic rises from 17.1 µg/mL (≈ 91.3 µM) to 26.5 µg/mL (≈ 146 µM) (1.5-fold).

Compared with `NS(=O)(=O)c1ccc(NC(=O)COC(=O)c2ccco2)cc1`, `C[C@H](NC(=O)c1ccco1)C(=O)OCC(=O)N1CC(=O)Nc2ccccc21` is higher in solubility kinetic: 30 µg/mL (≈ 92.5 µM) for the first, over 55.7 µg/mL for the second.

Going from `Cc1ccc2oc(=O)n(Cc3ccc(OC(C)C)cc3)c2c1` to `CC(C)Oc1nc(-c2ccc(Cl)cc2)nc2ccccc12`, the solubility kinetic falls from 1 µg/mL (≈ 3.36 µM) to under 0.3 µg/mL.

Compared with `COCCCN(CC(=O)O)S(=O)(=O)c1cccc(Cl)c1`, `COc1cc(OC)c(N(C)S(=O)(=O)c2cccc(C(=O)Nc3nccs3)c2)cc1Cl` is lower in solubility kinetic: over 48.3 µg/mL for the first, 4.2 µg/mL (≈ 8.98 µM) for the second.

`COC(=O)C(Cc1ccc(O)cc1)NC(=O)CCc1ccco1` (stereo not given) and `O=C(NCCCn1ccnc1)c1ccc(-c2cccc(Cl)c2Cl)o1` are within 1.5-fold of each other in solubility kinetic: 46.5 µg/mL (≈ 147 µM) for the first, 48.1 µg/mL (≈ 132 µM) for the second.

First: CS(=O)(=O)c1ccc(C(=O)N2CCc3ccccc3C2)cc1
Second: O=C(c1ccc2c(c1)OCO2)N1CCc2ccccc21
The solubility kinetic of the first is higher: over 47.3 µg/mL for the first, 34.9 µg/mL (≈ 131 µM) for the second.

Compared with `Cc1nc(Nc2ccccc2O)c2oc3ccccc3c2n1`, `Cc1cccc2c(C(=O)O)c3cccc(C)c3nc12` is higher in solubility kinetic: under 0.2 µg/mL for the first, 34 µg/mL (≈ 135 µM) for the second.

First: Cc1noc(C)c1C(=O)OCC(=O)Nc1c(F)cccc1F
Second: Cc1cc(C(=O)NCc2csc(-c3ccccc3)n2)no1
The solubility kinetic of the first is lower: 24 µg/mL (≈ 77.4 µM) for the first, over 44.9 µg/mL for the second.

First: CC(=O)CSc1nnc2cc(C)c3ccccc3n12
Second: Cc1cc(C)c(S(=O)(=O)Nc2ccccn2)c(C)c1
The solubility kinetic of the first is higher: over 40.7 µg/mL for the first, 4.7 µg/mL (≈ 17 µM) for the second.

Compared with `COc1ccc(NC(=S)NC(=NS(=O)(=O)c2ccc(Cl)cc2)c2ccccc2)cc1`, `O=C(O)c1cc(-c2ccc(Cl)cc2)n(-c2ccc(F)cc2)n1` is higher in solubility kinetic: 47.3 µg/mL (≈ 103 µM) for the first, over 47.5 µg/mL for the second.

Compared with `Cc1cc(N2CC(C(=O)Nc3nccs3)CC2=O)ccc1C(C)C` (stereo not given), `CC(C)c1ccc(-c2csc3nc[nH]c(=O)c23)cc1` is 6.5-fold higher in solubility kinetic: 1.4 µg/mL (≈ 4.08 µM) for the first, 9.1 µg/mL (≈ 33.7 µM) for the second.

Compared with `O=C(O)CSCC(=O)N1CCN(Cc2ccc3c(c2)OCO3)CC1`, `O=c1[nH]c(CN2CCOCC2)nc2scc(-c3ccccc3)c12` is lower in solubility kinetic: over 52.9 µg/mL for the first, 23.9 µg/mL (≈ 73 µM) for the second.

`O=C(O)c1ccc(Cl)c(NCc2cccs2)c1` and `O=C(NCCO)C(=O)c1c(-c2ccccc2)cc2ccccn12` are within 1.5-fold of each other in solubility kinetic: 34.8 µg/mL (≈ 130 µM) for the first, 38.2 µg/mL (≈ 124 µM) for the second.

Compared with `N#Cc1nc(-c2ccc([N+](=O)[O-])cc2)oc1N1CCCCC1`, `O=[N+]([O-])c1ccc(N2CCOCC2)c2cccnc12` is higher in solubility kinetic: 1.3 µg/mL (≈ 4.36 µM) for the first, over 38.9 µg/mL for the second.

Compared with `CC(C(=O)NC1CCCCC1)N1C(=O)c2cccc3cccc1c23` (stereo not given), `CC(Oc1ccccc1)C(=O)OCC(=O)NC(=O)NC1CCCCC1` (stereo not given) is 14-fold higher in solubility kinetic: 3.5 µg/mL (≈ 10.9 µM) for the first, 47.7 µg/mL (≈ 137 µM) for the second.

`Nc1ccnc(=O)[nH]1` and `COCCn1c(N)c(Sc2ccc(C)cc2)c(=O)[nH]c1=O` cannot be ordered by solubility kinetic: over 16.7 µg/mL for the first, over 46.1 µg/mL for the second.
